This passage reports pest or weed control results from patent US9681664B2, “Macrocyclic picolinamides as fungicides” (Dow Agrosciences LLC, priority 2012, dated 2017).

Common to all, as to format: in vivo
For one assay, the system named is Uncinula necator. Nature of the assay: Grape powdery mildew (UNCINE) disease control. The following applies: Erysiphe necator, 24 h, High volume application, 1 Day Protectant, read-out: UNCINE 1 DP disease control. Here is the method:
Technical grades of materials were dissolved in acetone, which were then mixed with nine volumes of water containing 110 ppm Triton X-100. The fungicide solutions were applied onto wheat seedlings using an automated booth sprayer to run-off. All sprayed plants were allowed to air dry prior to further handling. All fungicides were evaluated using the aforementioned method for their activity vs. all target diseases. Wheat leaf blotch and brown rust activity were also evaluated using track spray applications, in which case the fungicides were formulated as EC formulations, containing 0.1% Trycol 5941 in the spray solutions. Grape seedlings (variety Carignane) were grown in soil-less Metro mix, with one plant per pot, and used in the test when approximately one month old. Plants were inoculated 24 hr after fungicide treatment by shaking spores from infected leaves over test plants. Plants were maintained in a greenhouse set at 20° C. until disease was fully developed. Fungicide formulation, application and disease assessment on the sprayed leaves followed the procedures as described in the Example A.

For a further assay, the system named is Erysiphe cichoracearum. The assay is described as follows: Powdery mildew of cucumber (ERYSCI) disease control. The following applies: Golovinomyces cichoracearum, 24 h, 1 Day Protectant, high volume, read-out: Disease Control ERYSCI 1 DP. Here is the method: Technical grades of materials were dissolved in acetone, which were then mixed with nine volumes of water containing 110 ppm Triton X-100. The fungicide solutions were applied onto wheat seedlings using an automated booth sprayer to run-off. All sprayed plants were allowed to air dry prior to further handling. All fungicides were evaluated using the aforementioned method for their activity vs. all target diseases. Wheat leaf blotch and brown rust activity were also evaluated using track spray applications, in which case the fungicides were formulated as EC formulations, containing 0.1% Trycol 5941 in the spray solutions. Cucumber seedlings (variety Bush Pickle) were grown in soil-less Metro mix, with one plant per pot, and used in the test when 12 to 14 days old. Plants were inoculated with a spore suspension 24 hr following fungicide treatments. After inoculation the plants remained in the greenhouse set at 20° C. until disease was fully expressed. Fungicide formulation, application and disease assessment on the sprayed leaves followed the procedures as described in the Example A.

A further assay relates to Phakopsora pachyrhizi. The assay is described as follows: Asian soybean rust (PHAKPA) disease control. The following applies: topical, high volume. The procedure, abridged: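 Compounds in acetone diluted with nine volumes water containing 0.011% Tween 20, sprayed to run-off on two-week-old Williams 82 soybean seedlings, inoculated 3 days before or 1 day after treatment. Plants held 24 h in dark dew room at 22 °C, 100% RH, then at 23 °C; disease severity scored on sprayed leaves.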

Assay [1] concerns Puccinia triticina; Synonym: Puccinia recondite f. sp. tritici. The assay is described as follows: Wheat brown rust (PUCCRT) disease control on wheat seedlings. The following applies: Puccinia triticina; for pest or weed control at 121.5 g/ha: low volume application, 121.5 g/H. The procedure, abridged: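 Yuma wheat grown to first fully emerged leaf was inoculated with Puccinia triticina spore suspension either before or after fungicide treatment, held overnight at 22° C. and 100% RH in darkness, then kept at 24° C. Fungicide applied by booth sprayer to run-off (acetone/water, 110 ppm Triton X-100) or as EC by track spray.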

The test system of assay [2] is Mycosphaerella graminicola; Anamorph: Septoria tritici. Nature of the assay: Leaf blotch of wheat (SEPTTR) disease control on wheat seedlings. The following applies: Zymoseptoria tritici; for pest or weed control at 121.5 g/ha: low volume application, 121.5 g/H. The procedure, abridged:
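Protective or curative format: Septoria tritici inoculation either preceded or followed fungicide application to first-leaf Yuma wheat. Severity scored 0–100%; control expressed versus untreated.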

Assay [3] concerns Blumeria graminis f. sp. hordei; Synonym: Erysiphe graminis f. sp. hordei. Nature of the assay: Barley powdery mildew (ERYSGH) disease control. The following applies: 24 h, 1 Day Protectant, high volume, read-out: Disease Control ERYSGH 1 DP. Here is the method: Technical grades of materials were dissolved in acetone, which were then mixed with nine volumes of water containing 110 ppm Triton X-100. The fungicide solutions were applied onto wheat seedlings using an automated booth sprayer to run-off. All sprayed plants were allowed to air dry prior to further handling. All fungicides were evaluated using the aforementioned method for their activity vs. all target diseases. Wheat leaf blotch and brown rust activity were also evaluated using track spray applications, in which case the fungicides were formulated as EC formulations, containing 0.1% Trycol 5941 in the spray solutions. Barley seedlings (variety Harrington) were propagated in soil-less Metro mix, with each pot having 8 to 12 plants, and used in the test when first leaf was fully emerged. Test plants were inoculated by dusting with infected stock plants 24 hr after fungicide treatments. After inoculation the plants were kept in a greenhouse set at 20° C. for disease to develop. Fungicide formulation, application and disease assessment on the sprayed leaves followed the procedures as described in the Example A.

Assay [4] relates to Magnaporthe grisea; Anamorph: Pyricularia oryzae. The assay is described as follows: whole plant or invertebrate. The following applies: 24 h, read-out: PYRIOR 1 DP disease control.
The mark [5] stands for this setting: 24 h, 1 Day Protectant, read-out: Disease Control PHAKPA 1DP.
The mark [6] stands for this setting: 72 h, 3 Day Curative, read-out: Disease Control PHAKPA 3DC.
[7] abbreviates: 24 h, High volume application, 1 Day Protectant, read-out: PUCCRT 1DP disease control.
Where [8] appears, read: 72 h, High volume application, 3 Day Curative, read-out: PUCCRT 3DC disease control.
Where [9] appears, read: 24 h, High volume application, 1 Day Protectant, read-out: SEPTTR 1DP disease control.
[10] abbreviates: 72 h, High volume application, 3 Day Curative, read-out: SEPTTR 3DC disease control.
Setting [11] is: 24 h, Wheat Brown Rust, 1 Day Protectant, high volume application, read-out: Disease Control PUCCRT 1 DP 100 ppm.
[12] abbreviates: 24 h, Wheat Brown Rust, 1 Day Protectant, read-out: Disease Control PUCCRT 1 DP 121.5 g/H.
Where [13] appears, read: 72 h, Wheat Brown Rust, 3 Day Curative, high volume application, read-out: Disease Control PUCCRT 3 DC 100 ppm.
The mark [14] stands for this setting: 72 h, Wheat Brown Rust, 3 Day Curative, read-out: Disease Control PUCCRT 3 DC 121.5 g/H.
The mark [15] stands for this setting: 24 h, Wheat Leaf Blotch, 1 Day Protectant, high volume application, read-out: Disease Control SEPTTR 1 DP 100 ppm.
[16] abbreviates: 24 h, Wheat Leaf Blotch, 1 Day Protectant, read-out: Disease Control SEPTTR 1 DP 121.5 g/H.
[17] abbreviates: 72 h, Wheat Leaf Blotch, 3 Day Curative, high volume application, read-out: Disease Control SEPTTR 3 DC 100 ppm.
[18] abbreviates: 72 h, Wheat Leaf Blotch, 3 Day Curative, read-out: Disease Control SEPTTR 3 DC 121.5 g/H.

Like-named read-outs stand apart in the source and are kept apart here.

In the case of `CCCO[C@H]1CCC[C@H](NC(=O)c2nccc(OC)c2OCOC(=O)C(C)C)C(=O)O[C@@H](C)[C@@H]1OC1CCCC1` [F154], the pest or weed control at 100 ppm in the assay on Uncinula necator was in the range of 0 to 80%; in the assay on Erysiphe cichoracearum, 80 to 100%; in assay [1] (setting [7]), 80 to 100%; in assay [1] (setting [8]) it was 80 to 100%; in assay [2] (setting [9]), 80 to 100%; in assay [2] (setting [10]), 80 to 100%. Besides, the pest or weed control at 100 ppm in assay [3] and in assay [4] was 80 to 100% throughout. Besides, the pest or weed control at 25 ppm in the assay with Phakopsora pachyrhizi (setting [5]) and in the assay on Phakopsora pachyrhizi (setting [6]) was 80 to 100% in each case.

For `CCCO[C@H]1CCC[C@H](NC(=O)c2nccc(OC)c2OCOC(C)=O)C(=O)O[C@@H](C)[C@@H]1OC1CCCC1` [F155], the pest or weed control at 100 ppm in the assay with Uncinula necator lay in the range of 0 to 80%; with Erysiphe cichoracearum it was 80 to 100%; in assay [1] (setting [7]), 80 to 100%; in assay [1] (setting [8]), 80 to 100%; in assay [2] (setting [9]), 80 to 100%; in assay [2] (setting [10]), 80 to 100%. The pest or weed control at 100 ppm in assay [3] and in assay [4] was 80 to 100% in each case. Besides, the pest or weed control at 25 ppm with Phakopsora pachyrhizi (setting [5]) and in the assay on Phakopsora pachyrhizi (setting [6]) was 80 to 100% throughout.

For the molecule `COc1ccnc(C(=O)N[C@H]2CCC[C@H](OC3CCCC3)[C@@H](OCCCc3ccccc3)[C@H](C)OC2=O)c1OCOC(C)=O` [F165], the pest or weed control at 100 ppm was 0 to 80% with Uncinula necator; 0 to 80% in the assay on Erysiphe cichoracearum; 80 to 100% in assay [1] (setting [7]); 80 to 100% in assay [1] (setting [8]); 80 to 100% in assay [2] (setting [9]); 80 to 100% in assay [2] (setting [10]). The pest or weed control at 100 ppm fell in the range of 0 to 80% in assay [3] and 80 to 100% in assay [4]. Also, the pest or weed control at 25 ppm fell in the range of 80 to 100% with Phakopsora pachyrhizi (setting [5]) and 0 to 80% in the assay on Phakopsora pachyrhizi (setting [6]).

In the case of `CCCCCO[C@H]1[C@H](C)OC(=O)[C@@H](NC(=O)c2nccc(OC)c2OCOC(C)=O)CCC[C@@H]1OC1CCCC1` [F166], the pest or weed control at 100 ppm in the assay with Uncinula necator fell in the range of 0 to 80%; in the assay with Erysiphe cichoracearum, 80 to 100%; in assay [1] (setting [7]) it was 80 to 100%; in assay [1] (setting [8]), 80 to 100%; in assay [2] (setting [9]) it was 80 to 100%; in assay [2] (setting [10]), 80 to 100%. The pest or weed control at 100 ppm in assay [3] and in assay [4] was 80 to 100% each time. The pest or weed control at 25 ppm in the assay on Phakopsora pachyrhizi (setting [5]) and with Phakopsora pachyrhizi (setting [6]) was 80 to 100% each time.

For `COc1ccc(O[C@H]2CCC[C@H](NC(=O)c3nccc(OC)c3OCOC(C)=O)C(=O)O[C@@H](C)[C@@H]2OC2CCCC2)cc1` [F170], the pest or weed control at 100 ppm with Uncinula necator lay within 0 to 80%; with Erysiphe cichoracearum it was 0 to 80%; in assay [1] (setting [7]), 80 to 100%; in assay [1] (setting [8]), 80 to 100%; in assay [2] (setting [9]), 80 to 100%; in assay [2] (setting [10]), 80 to 100%. Besides, the pest or weed control at 100 ppm fell in the range of 0 to 80% in assay [3] and 80 to 100% in assay [4]. Further, the values for the pest or weed control at 25 ppm in the assay on Phakopsora pachyrhizi (setting [5]) and in the assay with Phakopsora pachyrhizi (setting [6]) were 80 to 100% and 0 to 80%, respectively.

As for `COc1ccnc(C(=O)N[C@H]2CCC[C@H](OCCCC(F)(F)F)[C@@H](OC3CCCC3)[C@H](C)OC2=O)c1OCOC(C)=O` [F172], the pest or weed control at 100 ppm in the assay with Uncinula necator was in the range of 0 to 80%; in the assay on Erysiphe cichoracearum, 80 to 100%; in assay [1] (setting [7]) it was 80 to 100%; in assay [1] (setting [8]), 80 to 100%; in assay [2] (setting [9]) it was 80 to 100%; in assay [2] (setting [10]), 80 to 100%. Besides, the pest or weed control at 100 ppm in assay [3] lay in the range of 0 to 80%; in assay [4], 80 to 100%. Further, the pest or weed control at 25 ppm in the assay with Phakopsora pachyrhizi (setting [5]) and in the assay with Phakopsora pachyrhizi (setting [6]) was 80 to 100% each time.

For the molecule `CCOCC(=O)OCOc1c(OC)ccnc1C(=O)N[C@H]1CCC[C@H](Oc2ccccc2)[C@@H](OC(=O)C2CCCC2)[C@H](C)OC1=O` [F237], the pest or weed control at 100 ppm with Uncinula necator is 0 to 80%; with Erysiphe cichoracearum it was under 0%; in assay [1] (setting [11]) it was 80 to 100%; in assay [1] (setting [13]), 80 to 100%; in assay [2] (setting [15]) it was 0 to 80%; in assay [2] (setting [17]) it was 0 to 80%. For the same molecule, the pest or weed control at 100 ppm in assay [3] lay in the range of 0 to 80%; in assay [4], 80 to 100%. Besides, the figures for the pest or weed control at 25 ppm in the assay with Phakopsora pachyrhizi (setting [5]) and in the assay with Phakopsora pachyrhizi (setting [6]) were 80 to 100% and under 0%, respectively. For the same molecule, the pest or weed control at 121.5 g/ha in assay [1] (setting [12]) is 80 to 100%; in assay [1] (setting [14]), 0 to 80%; in assay [2] (setting [16]) it was under 0%; in assay [2] (setting [18]), 0 to 80%.

Turning to `COc1ccnc(C(=O)N[C@H]2CCC[C@H](Oc3ccccc3)[C@@H](OC(=O)C3CC3)[C@H](C)OC2=O)c1OCOC(=O)C(C)C` [F241], the pest or weed control at 100 ppm is 0 to 80% in the assay with Uncinula necator; under 0% with Erysiphe cichoracearum; 80 to 100% in assay [1] (setting [11]); 80 to 100% in assay [1] (setting [13]); 80 to 100% in assay [2] (setting [15]); 80 to 100% in assay [2] (setting [17]). In addition, the pest or weed control at 100 ppm fell in the range of 0 to 80% in assay [3] and 80 to 100% in assay [4]. Moreover, the figures for the pest or weed control at 25 ppm in the assay on Phakopsora pachyrhizi (setting [5]) and in the assay with Phakopsora pachyrhizi (setting [6]) were 80 to 100% and 0 to 80%, respectively. For the same molecule, the pest or weed control at 121.5 g/ha was 80 to 100% in assay [1] (setting [12]), 80 to 100% in assay [1] (setting [14]), under 0% in assay [2] (setting [16]) and under 0% in assay [2] (setting [18]).
